We go through 106 molecules from PubChem BioAssay AID1996.

By solubility (kinetic) is commonly meant the concentration staying in solution when a stock, usually in DMSO, is diluted into the medium.

Values after ≈ are worked out from the molar mass of the structure shown.

For the data set the following is noted: buffer; pH 7.4; 200.0 µM.
`O=S1(=O)CCN(Cc2csc(-c3cccs3)n2)CC1` came in with a solubility (kinetic) greater than 0.0472 mg/mL.
With `C/C(=N\Nc1ccc2nncn2n1)c1cccs1` the figure was greater than 0.0387 mg/mL.
In turn, `Cl.O=C(NCCCn1ccnc1)c1cc(Cl)cc(Cl)c1` gave a solubility (kinetic) greater than 0.0502 mg/mL.
The molecule `COc1cc([N+](=O)[O-])ccc1NC(=O)CSc1ccccn1` had a solubility (kinetic) of 0.0005 mg/mL (≈ 1.57 µM).
With `COc1ccccc1/C=C1/C(=O)ON=C1C` the figure was 0.0313 mg/mL (≈ 144 µM).
With `Cc1cc(N/N=C/c2ccc(O)cc2O)nc(N2CCOCC2)n1`, the kinetic solubility was greater than 0.0494 mg/mL.
Then `Cc1ccc(C)c(OC(=O)c2cccnc2)c1`, with 0.0169 mg/mL (≈ 74.4 µM); and `CC(C)c1ccc(NC(=O)Cc2c(C(=O)O)n(C)c3ccccc23)cc1`, with greater than 0.0526 mg/mL; and `O=C(Nc1ccc2c(c1)OCCO2)c1cccc(Cl)c1Cl`, with 0.0355 mg/mL (≈ 110 µM).
With `Cc1cc(=O)[nH]c(SCC(=O)Nc2nonc2C)n1` the figure was greater than 0.0422 mg/mL; with `O=C(Nc1ccccc1)Nc1ccc(C(F)(F)F)cn1`, 0.0002 mg/mL (≈ 0.711 µM).
Then `CNC(=O)COC(=O)CCC(=O)c1ccc(Cl)cc1`, with 0.0362 mg/mL (≈ 128 µM); and `O=C(CC1CCCCC1)NCc1ccc(F)cc1`, with 0.0207 mg/mL (≈ 83 µM).
`Cc1cc(C(=O)N2CCC(Cc3ccccc3)CC2)c(C)o1` came in with a solubility (kinetic) of 0.0416 mg/mL (≈ 140 µM).
For the molecule `CCOP(=O)(OCC)C(Nc1ccc(C(=O)O)cc1)c1ccccc1` (stereo unspecified), the solubility (kinetic) is greater than 0.0545 mg/mL.
With `NC(=O)CN1C(=O)C(=O)N(Cc2cccc(Cl)c2)C1=O` the figure was greater than 0.0444 mg/mL; with `Cc1ccc(C(=O)O/N=C(\N)c2ccccn2)c(Cl)c1`, 0.0424 mg/mL (≈ 146 µM); with `Cc1ccc(C(=O)NCCN2CCNC2=O)cc1`, greater than 0.0371 mg/mL.
With `Cc1ccc2oc(=O)n(Cc3ccc(F)cc3)c2c1` the figure was 0.002 mg/mL (≈ 7.77 µM).
As to `CC(=O)NCCc1nc2ccccc2n1Cc1cc(C)ccc1C`, the solubility (kinetic) was greater than 0.0482 mg/mL.
The molecule `CN(C(=O)COC(=O)c1cncc(Br)c1)C1CCCCC1` displayed a solubility (kinetic) greater than 0.0533 mg/mL.
The molecule `CN1C(N)=NC(=O)/C1=C/c1ccc(F)cc1` gave a solubility (kinetic) greater than 0.0329 mg/mL.
Then `Cc1cc(C)c2c(CN3CCOCC3)cc(=O)oc2c1`, with 0.0372 mg/mL (≈ 136 µM); and `CC(C(=O)NC1CCCCC1)N1C(=O)c2cccc3cccc1c23` (stereo unspecified), with 0.0035 mg/mL (≈ 10.9 µM).
Consider `COc1cccc(NC(=O)CN2CCc3ccccc3C2)c1`, for which the solubility (kinetic) worked out at 0.0427 mg/mL (≈ 144 µM).
Take `CCSc1nsc(NC(=O)Nc2ccc(F)cc2F)n1`: the solubility (kinetic) came out at 0.0017 mg/mL (≈ 5.37 µM).
Then `Cc1c(-c2cccc(Cl)c2)nc2ccccc2c1C(=O)NC1CC1`, with greater than 0.0505 mg/mL; and `CCC(=O)Nc1nc2ccccc2n1Cc1ccccc1Cl`, with 0.0017 mg/mL (≈ 5.42 µM); and `COC(=O)CNC(=O)COC(=O)Cc1ccc(Cl)cc1`, with greater than 0.045 mg/mL.
In the case of `CC(CN1C(C)CCCC1C)OC(=O)c1ccc(F)cc1.Cl` (stereo unspecified), the kinetic solubility is 0.0465 mg/mL.
Then `CCc1ccc[n+](-c2nc([O-])sc2C=O)c1`, with greater than 0.0351 mg/mL.
With `O=C(NC(=S)NCCC1=CCCCC1)c1cccnc1` the figure was 0.0222 mg/mL (≈ 76.7 µM); with `Cc1cc(OCc2nc3ccccc3s2)ccc1N`, 0.0306 mg/mL (≈ 113 µM).
As to `N#Cc1sc(NCc2ccccn2)nc1Cl`, the kinetic solubility is greater than 0.0376 mg/mL.
Then `Cc1cccc(CNC(=O)C2CCC(=O)N(C3CC3)C2)c1` (stereo unspecified), with greater than 0.043 mg/mL.
With `O=C(C1CCCC1)N1CCCC(Nc2ccc(F)cc2)C1` (stereo unspecified) the figure was greater than 0.0436 mg/mL; with `Cc1ccc2nc(-c3ccncc3)cc(C(=O)N3CCOCC3)c2c1`, greater than 0.05 mg/mL; with `Cc1cc[n+](CC2OCc3ccccc3CO2)cc1.[Br-]`, greater than 0.0504 mg/mL.
Then `CCOC(=O)CNC(=O)C1COc2ccccc2O1` (stereo unspecified), with greater than 0.0398 mg/mL; and `CC(C)(C)OC(=O)N1CCC[C@H]1C(=O)Nc1ccc(C#N)cc1`, with 0.0407 mg/mL (≈ 129 µM).
Consider `O=C(Nc1ccc(Cl)cc1)C(Cl)C(=O)c1ccccc1` (stereo unspecified), for which the kinetic solubility was 0.0118 mg/mL (≈ 38.3 µM).
Then `Fc1ccc(OCc2cc(-c3ccccc3)no2)cc1`, with less than 0.0006 mg/mL; and `Cc1noc(C)c1COC(=O)c1csc2c1CCC(C)C2` (stereo unspecified), with 0.0014 mg/mL (≈ 4.58 µM); and `O=C(NC(=S)NC(CO)Cc1ccccc1)c1ccc(F)cc1` (stereo unspecified), with 0.0049 mg/mL (≈ 14.7 µM).
Then `COc1ccccc1NC(=O)c1ccc(NC(=O)COC(=O)c2cncc(Br)c2)cc1`, with 0.01 mg/mL (≈ 20.6 µM).
Then `CN1c2ccccc2C(=O)/C(=C\Nc2ncccn2)S1(=O)=O`, with 0.0028 mg/mL (≈ 8.85 µM); and `O=C(CS(=O)(=O)c1ccccc1Cl)N1CCOCC1`, with 0.0438 mg/mL (≈ 144 µM); and `O=C(Nc1ccccn1)c1ccc(Cl)s1`, with 0.0309 mg/mL (≈ 129 µM).
With `O=C(NCc1cccnc1)c1cnc2ccccc2n1`, the solubility (kinetic) is greater than 0.0396 mg/mL.
Regarding `O=C(N/C(=C/c1cccnc1)C(=O)N1CCOCC1)c1ccccc1Cl`, the kinetic solubility was greater than 0.0558 mg/mL.
Then `CN(C(=O)CSc1nc2ccccc2c(=O)n1-c1ccc(F)cc1F)C1CCS(=O)(=O)C1` (stereo unspecified), with greater than 0.0719 mg/mL.
With `O=C(NCCN1CCCCC1)Nc1ccccc1F` the figure was greater than 0.0398 mg/mL; with `CCCCn1c(SCC(=O)N(C)C)nnc1-c1ccncc1`, greater than 0.0479 mg/mL.
With `O=[N+]([O-])c1ccc(S(=O)(=O)Nc2ccc3c(c2)OCCO3)cc1` the figure was 0.0452 mg/mL (≈ 134 µM); with `COc1ccc(NC(=O)C(=O)Nc2cccc3ccccc23)c(OC)c1`, less than 0.0004 mg/mL.
In the case of `COc1ccc(CNC(=O)N[C@H](C(=O)O)C(C)C)cc1OC`, the solubility (kinetic) is greater than 0.0466 mg/mL.
With `CCNc1ccc(S(=O)(=O)N(C)C)cc1[N+](=O)[O-]` the figure was 0.0231 mg/mL (≈ 84.5 µM); with `Cn1nc(C(=O)NC2CCCC2)c2ccccc2c1=O`, greater than 0.0407 mg/mL.
Turning to `COCc1nc2ccccc2n1Cc1c(F)cccc1Cl`, the solubility (kinetic) is greater than 0.0457 mg/mL.
With `CN(C)c1ccc(C(CN)c2c[nH]c3ccccc23)cc1` (stereo unspecified) the figure was 0.0302 mg/mL (≈ 108 µM); with `NS(=O)(=O)c1ccc(NC(=O)COc2ccc(Cl)cc2)cc1`, 0.0025 mg/mL (≈ 7.34 µM); with `CCS(=O)(=O)c1ccc2c(c1)NC(=O)C(CCO)O2` (stereo unspecified), 0.0404 mg/mL (≈ 142 µM).
Then `S=C1SCN(CC2CC2)CN1CC1CC1`, with greater than 0.0364 mg/mL; and `COc1ccc2[nH]c3c(=O)n(CCc4ccccc4)cnc3c2c1`, with 0.0006 mg/mL (≈ 1.88 µM).
The molecule `Cc1ccc(C)c(OCCC(=O)Nc2ccccc2C(=O)NC2CC2)c1` had a kinetic solubility of 0.0042 mg/mL (≈ 11.9 µM).
Then `CCc1ccc(N2C(=O)CN(Cc3cccs3)C2=S)cc1`, with less than 0.0003 mg/mL; and `O=C(NCC(=O)N1CCOCC1)OCc1ccccc1`, with greater than 0.0417 mg/mL.
Then `Cc1ccc(Br)cc1S(=O)(=O)Nc1cccnc1`, with greater than 0.0491 mg/mL.
Then `CCc1cc2c(SC(C)C(=O)NC3CCCC3)ncnc2s1` (stereo unspecified), with 0.0344 mg/mL (≈ 103 µM); and `O=c1[nH]cc(N(CCO)CCO)c(=O)[nH]1`, with greater than 0.0323 mg/mL.
Turning to `CCOc1ccc2c(c1)c1nc3ccccc3nc1n2C`, the kinetic solubility was less than 0.0002 mg/mL.
Then `CCCCN=C1CC(C)(C)CC(=O)/C1=C(/O)CCC`, with greater than 0.0398 mg/mL; and `CN1CCC(N(C)C(=S)Nc2ccc(F)cc2)CC1`, with greater than 0.0422 mg/mL.
As for `O=C(/C=C/c1cccc([N+](=O)[O-])c1)OCC(=O)c1ccccc1`, the solubility (kinetic) was less than 0.0007 mg/mL.
With `COc1ccc(NC(=O)C2CCOC(C)(C)C2)cc1` (stereo unspecified) the figure was greater than 0.0395 mg/mL.
With `Cc1ccc(C)c(NC(=O)CCN2CCN(C)CC2)c1` the figure was greater than 0.0413 mg/mL.
`O=C(NC1CCCCNC1=O)c1ccccc1` (stereo unspecified): the kinetic solubility is greater than 0.0348 mg/mL.
With `Cn1c(CNc2ccc(F)cc2)nc2ccccc21` the figure was greater than 0.0383 mg/mL; with `N#C/C(=C\c1ccc(OCC(N)=O)cc1)S(=O)(=O)c1ccccc1`, 0.0094 mg/mL (≈ 27.5 µM).
With `Cc1ccc(NC(=O)c2ccc(Oc3ncccn3)cc2)cc1` the figure was 0.005 mg/mL (≈ 16.4 µM); with `O=C(c1cc2ccccc2o1)N1CC=C(c2ccccc2)CC1`, 0.0051 mg/mL (≈ 16.8 µM).
Then `Cc1oc(CC(C)C)cc1C(=O)NCCCC(=O)O`, with greater than 0.0401 mg/mL; and `O=C1C2C3CCC(O3)C2C(=O)N1c1cccc(O)c1` (stereo unspecified), with greater than 0.0389 mg/mL; and `O=c1nc(-c2ccccc2)c2cc(Br)ccc2[nH]1`, with 0.0018 mg/mL (≈ 5.98 µM).
`CCOc1ccc(NC(=S)NC(=O)C2CCCC2)cc1` displayed a kinetic solubility of 0.001 mg/mL (≈ 3.42 µM).
Then `NC(=S)COc1ccccc1`, with 0.0183 mg/mL (≈ 109 µM); and `CC(C(=O)Nc1ccccc1)N(C)CCOc1ccccc1` (stereo unspecified), with 0.0437 mg/mL (≈ 146 µM); and `Clc1ccc(N2CC2c2ccncc2)cc1` (stereo unspecified), with 0.0326 mg/mL (≈ 141 µM).
In turn, `COc1ccc(S(=O)(=O)NCCc2c[nH]c3ccc(C)cc23)cc1` yielded a solubility (kinetic) of 0.0173 mg/mL (≈ 50.2 µM).
Then `Cc1ccc(NC(=O)CCn2cnc3ccccc3c2=O)c(C)c1`, with 0.0137 mg/mL (≈ 42.6 µM).
Then `O=C(OCc1csc(-c2ccccc2)n1)c1ccc(O)cc1`, with less than 0.0007 mg/mL; and `CC(C)(C)Nc1ncnc2sc(-c3ccccc3)cc12`, with less than 0.0002 mg/mL.
With `CC(C)[C@H](NS(=O)(=O)c1ccccc1)C(=O)OCC(=O)NC(=O)NC1CCCCC1` the figure was greater than 0.0659 mg/mL.
Consider `COc1ccc(S(=O)(=O)N2CCOCC2)c2ccccc12`, for which the solubility (kinetic) came out at 0.0406 mg/mL (≈ 132 µM).
With `CC(=O)c1c(C)[nH]c(C(=O)COC(=O)C2(C)CC2(Cl)Cl)c1C` (stereo unspecified) the figure was 0.0119 mg/mL (≈ 34.4 µM); with `COc1ccc(C(=O)OCC(=O)NC(C)CCc2ccccc2)cc1` (stereo unspecified), 0.0101 mg/mL (≈ 29.6 µM).
With `COc1ccccc1OCCCn1cc(C(C)=O)c2ccccc21` the figure was 0.0258 mg/mL (≈ 79.8 µM); with `COC(=O)CNC(=O)COC(=O)/C=C/c1ccccc1[N+](=O)[O-]`, 0.0413 mg/mL (≈ 128 µM).
Then `Cc1cc(C)cc(NC(=O)CN2CCN(c3ccccn3)CC2)c1`, with 0.0028 mg/mL (≈ 8.63 µM); and `CCCCc1nc2cc(C(=O)N3CCC(O)CC3)ccc2o1`, with greater than 0.0454 mg/mL; and `CC(c1ccccc1)N1C(=O)OC(C)(C)C1(C)O` (stereo unspecified), with greater than 0.0374 mg/mL.
`Cc1cccc(Oc2ccc3c(c2)cc(C(=O)O)n3C)c1` returned a solubility (kinetic) of 0.0407 mg/mL (≈ 145 µM).
Take `CCN(C1CCS(=O)(=O)C1)S(=O)(=O)c1ccc2ccccc2c1` (stereo unspecified): the solubility (kinetic) amounted to 0.0159 mg/mL (≈ 45 µM).
Then `CCN(Cc1ccccc1)C(=O)Cc1c[nH]c2ccccc12`, with 0.0339 mg/mL (≈ 116 µM); and `CCCOc1ccc(/C=C/C(=O)NC2CCCCC2)cc1OC`, with less than 0.0007 mg/mL; and `COc1ccc(/C=C/C(=O)O)cc1S(=O)(=O)N1CCC(C)CC1`, with greater than 0.0509 mg/mL.
